Data from ChEMBL document CHEMBL1201862, “PubChem BioAssay data set” (2004).
The source made the active and inactive calls. Rule as the data show it, for most assays here: actives have a measured EC50 and inactives only a lower limit.

Key:
[1] = biological target: FAD-linked sulfhydryl oxidase ALR (Homo sapiens, UniProt P55789); test: ALR-catalysed DTT oxidation blockers – biochemical, H2O2 detection, luminescence, cherry-pick, dose response (AID 493248)
[2] = biological target: T1, Replicative DNA helicase DnaB (Mycobacterium tuberculosis, UniProt P9WMR3); test: DnaB intein splicing inhibitors, dose response, biochemical, cell-free fluorescence (AID 449749); type: functional
T1 sequence (P9WMR3 whole entry): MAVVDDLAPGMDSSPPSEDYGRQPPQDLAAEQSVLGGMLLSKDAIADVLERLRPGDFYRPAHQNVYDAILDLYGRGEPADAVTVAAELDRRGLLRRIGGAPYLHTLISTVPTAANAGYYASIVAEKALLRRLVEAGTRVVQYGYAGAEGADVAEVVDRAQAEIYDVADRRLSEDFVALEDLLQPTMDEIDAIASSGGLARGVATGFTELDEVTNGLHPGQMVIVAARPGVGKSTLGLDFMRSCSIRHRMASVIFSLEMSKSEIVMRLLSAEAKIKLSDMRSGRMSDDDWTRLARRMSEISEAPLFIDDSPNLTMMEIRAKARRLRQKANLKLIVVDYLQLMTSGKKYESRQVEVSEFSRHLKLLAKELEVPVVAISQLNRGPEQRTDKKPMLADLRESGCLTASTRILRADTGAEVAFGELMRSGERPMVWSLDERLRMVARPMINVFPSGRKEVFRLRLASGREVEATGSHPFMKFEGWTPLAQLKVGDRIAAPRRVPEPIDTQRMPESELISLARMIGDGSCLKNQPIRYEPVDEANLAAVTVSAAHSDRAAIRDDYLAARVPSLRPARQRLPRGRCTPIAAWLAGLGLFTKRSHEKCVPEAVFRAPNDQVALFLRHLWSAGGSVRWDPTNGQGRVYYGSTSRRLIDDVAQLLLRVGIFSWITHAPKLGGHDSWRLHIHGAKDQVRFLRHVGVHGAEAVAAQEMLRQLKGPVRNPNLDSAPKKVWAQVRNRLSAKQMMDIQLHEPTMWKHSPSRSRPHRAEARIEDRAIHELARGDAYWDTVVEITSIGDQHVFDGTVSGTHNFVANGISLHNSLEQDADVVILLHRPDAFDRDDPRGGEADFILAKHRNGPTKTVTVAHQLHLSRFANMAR

Protein RecA = biological target: T2, Protein RecA (Mycobacterium tuberculosis, UniProt P9WHJ3); test: Fluorescence Cell-Free Homogeneous Dose Retest to Identify Inhibitors of RecA-Intein Splicing Activity. [Related pubchem assays (depositor defined):AID2097, AID2223, AID489010, AID492950]; type: functional
T2 sequence (P9WHJ3 whole entry): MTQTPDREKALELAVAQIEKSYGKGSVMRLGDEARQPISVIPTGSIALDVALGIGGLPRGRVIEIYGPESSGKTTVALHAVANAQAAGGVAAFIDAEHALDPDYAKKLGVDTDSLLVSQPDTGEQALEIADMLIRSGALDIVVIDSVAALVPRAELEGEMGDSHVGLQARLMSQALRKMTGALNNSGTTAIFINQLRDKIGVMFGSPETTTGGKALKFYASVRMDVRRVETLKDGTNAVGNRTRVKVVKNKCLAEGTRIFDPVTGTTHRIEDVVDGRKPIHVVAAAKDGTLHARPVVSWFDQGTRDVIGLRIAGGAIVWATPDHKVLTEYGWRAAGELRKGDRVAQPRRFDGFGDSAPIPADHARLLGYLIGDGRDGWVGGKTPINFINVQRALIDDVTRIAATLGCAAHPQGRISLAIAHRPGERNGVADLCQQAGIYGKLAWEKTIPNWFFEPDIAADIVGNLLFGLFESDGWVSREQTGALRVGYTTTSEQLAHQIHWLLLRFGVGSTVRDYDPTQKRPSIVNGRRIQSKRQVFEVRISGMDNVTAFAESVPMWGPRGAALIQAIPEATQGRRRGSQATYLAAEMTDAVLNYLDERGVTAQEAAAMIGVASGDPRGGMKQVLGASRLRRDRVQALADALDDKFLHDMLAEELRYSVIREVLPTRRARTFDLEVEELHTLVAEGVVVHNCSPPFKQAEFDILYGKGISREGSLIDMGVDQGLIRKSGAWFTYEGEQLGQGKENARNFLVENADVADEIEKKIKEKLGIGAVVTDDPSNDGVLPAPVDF

[3] = biological target: T3, Rac GTPase-activating protein 1 (Homo sapiens, UniProt Q9H0H5); test: blockers of MgcRacGAP-driven Rac1 GTP hydrolysis – biochemical, ADP Hunter fluorescence, primary and confirmatory, confirmation (AID 624330); type: functional
T3 sequence (Q9H0H5 whole entry): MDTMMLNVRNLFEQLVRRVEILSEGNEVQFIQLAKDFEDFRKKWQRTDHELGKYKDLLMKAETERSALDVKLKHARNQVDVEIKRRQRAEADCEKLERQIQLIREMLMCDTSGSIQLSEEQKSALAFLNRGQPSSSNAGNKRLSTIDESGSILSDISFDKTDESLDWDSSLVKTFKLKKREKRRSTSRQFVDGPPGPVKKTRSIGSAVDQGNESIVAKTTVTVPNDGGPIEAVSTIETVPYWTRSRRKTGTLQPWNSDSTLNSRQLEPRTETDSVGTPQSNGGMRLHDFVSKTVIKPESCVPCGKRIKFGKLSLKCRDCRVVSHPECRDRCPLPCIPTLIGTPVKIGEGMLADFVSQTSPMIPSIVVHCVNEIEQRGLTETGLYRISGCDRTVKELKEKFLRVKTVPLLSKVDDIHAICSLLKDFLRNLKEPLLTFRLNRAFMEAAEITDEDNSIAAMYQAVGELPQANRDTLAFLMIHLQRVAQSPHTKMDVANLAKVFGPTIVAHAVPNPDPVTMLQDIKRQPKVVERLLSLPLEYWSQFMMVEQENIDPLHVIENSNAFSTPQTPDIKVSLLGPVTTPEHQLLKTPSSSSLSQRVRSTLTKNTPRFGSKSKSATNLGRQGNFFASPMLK

[4] = Luminescence Cell-Based Dose Confirmation HTS to Identify Inhibitors of Platelet Dense Granule Release. [Related pubchem assays: 1663 (Primary HTS), 1678 (Summary of Project)]; type: functional
[5] = biological target: Luciferin 4-monooxygenase (Photinus pyralis, UniProt P08659); test: inhibition of purified Photinus pyralis luciferase – biochemical, luminescence, dose response (AID 1891)
[6] = NIH3T3 cell viability loss – ATP luminescence, mouse fibroblasts, counter-screen, dose response (AID 2010); type: functional, cell-based;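 also: cells exposed to compound for about 90 hours before reading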
[7] = Trypanosoma cruzi growth suppression in host cells – NIH3T3 host cells, beta-gal luminescence, confirmation (AID 2044); type: functional, cell-based;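 also: intracellular parasites grown in NIH/3T3 mouse fibroblasts as host cells; luminescent beta-galactosidase reporter signal from transgenic T. cruzi replicating inside host cells; inhibitors lower the luminescence signal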
[8] = NIH-3T3 fibroblast cytotoxicity, dose response, cytotoxicity control, cell-based, fluorescence, Alamar Blue, secondary assay (AID 2327); type: functional;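 also: NIH-3T3 mouse fibroblasts cultured with fluconazole at 8 µg/mL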
[9] = fluconazole-exposed Candida albicans growth modulators – fluorescence, retest, confirmation (AID 2467); type: functional, cell-based
Streptokinase A = biological target: T4, Streptokinase A (Streptococcus pyogenes serotype M1, UniProt P10520); test: viability-normalized secreted streptokinase activity reduction – plasminogen activation absorbance, OD405, dose response (AID 1914); type: functional, Streptococcus pyogenes M1 GAS;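 also: secreted streptokinase activity via plasminogen activation per viability signal from cell pellet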
T4 sequence (P10520 whole entry): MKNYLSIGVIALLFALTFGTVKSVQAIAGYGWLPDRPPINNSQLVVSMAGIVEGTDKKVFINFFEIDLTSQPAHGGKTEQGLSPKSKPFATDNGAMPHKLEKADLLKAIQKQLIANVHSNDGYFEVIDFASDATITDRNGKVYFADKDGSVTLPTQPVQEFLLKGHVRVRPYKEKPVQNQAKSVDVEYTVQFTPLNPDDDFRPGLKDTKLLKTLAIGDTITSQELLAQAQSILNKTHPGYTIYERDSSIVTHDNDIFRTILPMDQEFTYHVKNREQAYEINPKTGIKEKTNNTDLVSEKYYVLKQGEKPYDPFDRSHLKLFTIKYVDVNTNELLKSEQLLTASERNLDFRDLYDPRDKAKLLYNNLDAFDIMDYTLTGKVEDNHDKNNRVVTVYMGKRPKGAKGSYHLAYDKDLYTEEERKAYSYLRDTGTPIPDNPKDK

Sequence of FAD-linked sulfhydryl oxidase ALR (P55789 whole entry): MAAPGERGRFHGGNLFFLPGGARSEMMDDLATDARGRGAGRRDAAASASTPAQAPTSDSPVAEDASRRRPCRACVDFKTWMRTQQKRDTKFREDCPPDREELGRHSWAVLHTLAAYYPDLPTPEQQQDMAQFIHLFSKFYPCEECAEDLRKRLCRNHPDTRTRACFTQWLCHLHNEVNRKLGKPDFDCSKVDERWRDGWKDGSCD
Sequence of Luciferin 4-monooxygenase (P08659 whole entry): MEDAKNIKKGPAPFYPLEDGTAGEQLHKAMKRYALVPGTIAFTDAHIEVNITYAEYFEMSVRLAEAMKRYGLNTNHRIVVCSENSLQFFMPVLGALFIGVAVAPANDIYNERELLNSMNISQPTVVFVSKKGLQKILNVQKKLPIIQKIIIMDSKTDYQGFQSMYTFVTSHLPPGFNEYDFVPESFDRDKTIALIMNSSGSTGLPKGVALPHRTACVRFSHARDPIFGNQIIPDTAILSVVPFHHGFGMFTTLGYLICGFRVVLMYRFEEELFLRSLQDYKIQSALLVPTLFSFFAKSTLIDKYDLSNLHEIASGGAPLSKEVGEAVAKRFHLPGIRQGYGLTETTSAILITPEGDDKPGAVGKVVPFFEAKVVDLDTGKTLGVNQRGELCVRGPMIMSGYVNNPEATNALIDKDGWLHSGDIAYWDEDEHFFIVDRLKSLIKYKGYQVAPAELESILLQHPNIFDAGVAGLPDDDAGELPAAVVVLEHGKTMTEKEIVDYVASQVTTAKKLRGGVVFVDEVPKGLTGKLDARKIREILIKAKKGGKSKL

For `O=[N+]([O-])c1c(O)nc(/C=C\c2cccc(F)c2)nc1O`, the AC50 [1] was 1.76 µM (active).
For `CCc1n[nH]c2c1C(c1ccc(C)o1)C(C#N)=C(N)O2` (stereo not given), the AC50 [2] was 37.3 µM (active) and the EC50 (Protein RecA) was 4.31 µM (active).
For `COc1ccccc1CN1CCN(Cc2cc(OC)c(OC)cc2OC)CC1`, the IC50 [3] was 73.5 µM (active).
For `Cc1c(Cl)cccc1Nc1nnc(S)s1`, the IC50 [3] was 108 µM (active).
In the case of `O=C1CSC(c2ccccn2)N1c1cccc(Cl)c1` (stereo not given), the AC50 [1] is reported as 0.394 µM (active).
With `CC(=O)N1N=C(c2ccncc2)OC12CCCC2` the EC50 [4] was > 112 µM (not active) and the EC50 [5] was > 112 µM (not active).
With `CCn1c(SCc2cccc(C(=O)O)c2)nnc1-c1ccccc1` the EC50 [4] was > 112 µM (not active) and the EC50 [5] was > 112 µM (not active).
In the case of `CCN(CC(=O)Nc1ccc(S(=O)(=O)N2CCCC2)cc1)CC(=O)Nc1cccc(OC)c1`, the IC50 [3] is reported as 35.5 µM (active).
With `C=CCn1c(SCc2cccc(F)c2)nc2cc(C(=O)N3CCC(C(N)=O)CC3)ccc2c1=O` the AC50 [1] was 2.27 µM (active).
With `COC(CN(C(=O)CCl)C(C(=O)NC1CCCC(C)C1C)c1ccc(C)cc1)OC` (stereo not given) the AC50 [2] was 24.6 µM (active) and the EC50 (Protein RecA) was 2.11 µM (active).
With `COc1cc(/C=C/C(=O)OCC(=O)Nc2cccc(F)c2)ccc1O` the IC50 [3] was 41.6 µM (active).
With `C/C(=N\Nc1nc2ccccc2[nH]1)c1ccc(C)o1` the IC50 [3] was 69 µM (active) and the AC50 [1] was 0.299 µM (active).
For `c1ccc2nc(N3CCCC3)c(N3CCCC3)nc2c1`, the AC50 [1] was 0.034 µM (active).
With `CCOC(=O)c1sc(=S)n(CC)c1NC(=O)C1CC1` the EC50 [4] was > 112 µM (not active) and the EC50 [5] was > 112 µM (not active).
For `Sc1nncn1/N=C/c1ccccn1`, the AC50 [1] was 3.06 µM (active).
In the case of `Cc1csc(SCC(=O)Nc2nc(-c3ccccc3)cs2)n1`, the EC50 [4] is reported as > 112 µM (not active) and the EC50 [5] is reported as > 112 µM (not active).
For `CCOc1cc(NC(=O)c2ccccc2C(=O)O)c(OCC)cc1NC(=O)c1ccccc1F`, the EC50 [6] was > 60 µM (not active), the EC50 [7] was 5.83 µM (active) and the IC50 [3] was 54.8 µM (active).
For `Cc1nc(SCc2ccc(Cl)c(Cl)c2)ncc1C(=O)O`, the EC50 [8] was > 150 µM (inactive), the EC50 [9] was 0.78 µM (active) and the AC50 [1] was 0.027 µM (active).
In the case of `O=C(O)c1cccc(S(=O)(=O)Nc2ccc(O)c(Sc3nc4ccccc4s3)c2)c1`, the AC50 [1] is reported as 0.176 µM (active).
In the case of `O=C(N/N=C/c1ccc(O)c(O)c1)c1ccc(-n2cnnn2)cc1`, the IC50 [3] is reported as 18.6 µM (active).
In the case of `COc1ccc(N2CCN(C(=O)CCCn3nnnc3CN3CCOCC3)C(C)C2)cc1` (stereo not given), the IC50 [3] is reported as 150 µM (active).
For `CC1CCCN(C(=O)COc2ccc(NC(=O)c3cccs3)cc2)C1` (stereo not given), the AC50 [2] was > 380 µM (inactive) and the EC50 (Protein RecA) was > 380 µM (inactive).
With `COc1cc(-n2c(S)nnc2-c2ccccc2)c(OC)cc1Cl` the AC50 [1] was 12.3 µM (active).
For `O=C(O)/C=C/C(=O)Nc1ccc(SC(F)(F)C(F)(F)C(F)(F)F)cc1`, the AC50 [2] was 11.7 µM (active) and the EC50 (Protein RecA) was 2.59 µM (active).
With `COc1ccc(COC(=O)N/N=C(\C)CC(=O)Nc2ccc(Cl)cn2)cc1` the AC50 [2] was 5.46 µM (active) and the EC50 (Protein RecA) was 4.27 µM (active).
With `Clc1ccc(/C=C/c2ncc3ccccn23)cc1` the AC50 [1] was 8.17 µM (active).
In the case of `CCOc1cc(/C=C/c2cccc[n+]2C)ccc1O`, the IC50 [3] is reported as 22.9 µM (active).
In the case of `CC(C)NC(=S)NC(c1ccccc1)(c1ccccc1)c1ccccc1`, the AC50 [2] is reported as 3.07 µM (active), the EC50 (Streptokinase A) is reported as 11.7 µM (active) and the EC50 (Protein RecA) is reported as 136 µM (inconclusive).
For `O=C(NCc1ccccc1)C(c1cccnc1)N(C(=O)c1ccccn1)c1ccc(F)cc1` (stereo not given), the EC50 [4] was > 112 µM (not active) and the EC50 [5] was > 112 µM (not active).
For `CCOC(=O)C1CCCN(C(S)=Nc2ccc(Nc3ccccc3)cc2)C1` (stereo not given), the IC50 [3] was 51 µM (active).
In the case of `CCN1CCCC1CNC(=O)CS(=O)(=O)Cc1nc(-c2ccccc2C)oc1C` (stereo not given), the EC50 [4] is reported as 64.8 µM (active) and the EC50 [5] is reported as > 112 µM (not active).
In the case of `COc1ccccc1-n1c(=O)c2c3c(sc2n2c(S)nnc12)CCC3`, the IC50 [3] is reported as 50.3 µM (active).
For `CCOc1c(OC(C)=O)ccc(/C=C/c2ccc3cccc(OC)c3n2)c1[N+](=O)[O-]`, the EC50 [4] was 17.6 µM (active) and the EC50 [5] was > 112 µM (not active).
With `Oc1c(C(c2cccs2)N2CCOCC2)sc2ncnn12` (stereo not given) the EC50 [4] was > 112 µM (not active) and the EC50 [5] was > 112 µM (not active).
With `Nc1cccc(-c2cn3cccnc3n2)c1` the AC50 [1] was 0.232 µM (active).
In the case of `CCc1ccc(-c2cc(C)no2)cc1S(=O)(=O)NCCN1CCC(C)CC1`, the EC50 [4] is reported as > 112 µM (not active) and the EC50 [5] is reported as > 112 µM (not active).
For `Cc1onc(-c2ccccc2Cl)c1C(=O)N1CCc2ccccc2C1`, the EC50 [4] was > 112 µM (not active) and the EC50 [5] was > 112 µM (not active).
For `Oc1ccc(O)c2c1C1c3ccccc3C2c2ccccc21`, the AC50 [2] was 34.5 µM (active), the EC50 [8] was 25 µM (active) and the EC50 [9] was 2.94 µM (active). The EC50 (Protein RecA) was 2.08 µM (active).
In the case of `COc1ccc(C(=O)Nc2ccc3[nH]ccc3c2)cc1OC`, the EC50 [4] is reported as > 112 µM (not active) and the EC50 [5] is reported as > 112 µM (not active).
